According to patent publication US20080255041A1, “Treatment of annulus fibrosis defects” (EBI, L.P., priority 2007, published 2008):

Test system: annulus fibrosis of the defective disc
Assay: Injection of the composition into the annulus fibrosis of a patient with degenerative disc disease
Format: in vivo, human
Details: patient with transverse annulus fibrosis tear between fifth lumbar and sacrum; F2A4-K—NS in hyaluronic acid carrier injected by syringe
Text: A syringe containing the synthetic molecule F2A4-K—NS and a hyaluronic acid carrier is used to inject the composition into the annulus fibrosis of the defective disc. […] In the above example, collagen, heparin sulfate or propylene glycol is substituted for hyaluronic acid, to form gel carriers, with substantially similar results.

H—YRSRKYSSWYVALKRK(H—YRSKYSSWYVALKR)-Ahx-Ahx-Ahx-RKRLDRIAR—NH2 [F2A4-K—NS]
angiogenesis at the site of the annulus fibrosis defect: promotes angiogenesis
degeneration of the disc / closure of the annulus fibrosis tear: prevents further degeneration of the disc
